Laboratory results as given in patent US9969694B2, “N-(arylalkyl)-N′-pyrazolyl-urea, thiourea, guanidine and cyanoguanidine compounds as TrkA kinase inhibitors” (Array BioPharma Inc., priority 2012, dated 2018).

What was measured:
Experiment in all cases: Off-Target Kinase Profiling
Assay type in all cases: biochemical
Settings in all cases: 10 μM; ATP near Km
MSK1 = molecular target: T1, MSK1 (Homo sapiens, UniProt O75582)
T1 construct: purchased Millipore, Inc. (KinaseProfiler service)
Summary of the method: (§1)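 Kinase activity remaining in the presence of 10 μM compound, as percent of control; mean of two runs. ATP near Km for each kinase.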

PKD1 = molecular target: T2, PKD1 (Homo sapiens, UniProt Q15139)
T2 construct: purchased Millipore, Inc. (KinaseProfiler service)
Summary of the method: as §1

MSSK1 = molecular target: T3, MSSK1 (Homo sapiens, UniProt Q9UPE1)
T3 construct: purchased Millipore, Inc. (KinaseProfiler service)
Summary of the method: as §1

CLK2 = molecular target: T4, CLK2 (Homo sapiens, UniProt P49760)
T4 construct: purchased Millipore, Inc. (KinaseProfiler service)
Summary of the method: as §1

ROCK-II = molecular target: T5, ROCK-II (Homo sapiens, UniProt O75116)
T5 construct: purchased Millipore, Inc. (KinaseProfiler service)
Summary of the method: as §1

DYRK2 = molecular target: T6, DYRK2 (Homo sapiens, UniProt Q92630)
T6 construct: purchased Millipore, Inc. (KinaseProfiler service)
Summary of the method: as §1

PTK5 = molecular target: T7, PTK5 (Homo sapiens, UniProt P42685)
T7 construct: purchased Millipore, Inc. (KinaseProfiler service)
Summary of the method: as §1

SGK1 = molecular target: T8, SGK1 (Homo sapiens, UniProt O00141)
T8 construct: purchased Millipore, Inc. (KinaseProfiler service)
Summary of the method: as §1

Ron = molecular target: T9, Ron (Homo sapiens, UniProt Q04912)
T9 construct: purchased Millipore, Inc. (KinaseProfiler service)
Summary of the method: as §1

Plk2 = molecular target: T10, Plk2 (Homo sapiens, UniProt Q9NYY3)
T10 construct: purchased Millipore, Inc. (KinaseProfiler service)
Summary of the method: as §1

Axl = molecular target: T11, Axl (Homo sapiens, UniProt P30530)
T11 construct: purchased Millipore (KinaseProfiler service)
T11 sequence (P30530 26-894): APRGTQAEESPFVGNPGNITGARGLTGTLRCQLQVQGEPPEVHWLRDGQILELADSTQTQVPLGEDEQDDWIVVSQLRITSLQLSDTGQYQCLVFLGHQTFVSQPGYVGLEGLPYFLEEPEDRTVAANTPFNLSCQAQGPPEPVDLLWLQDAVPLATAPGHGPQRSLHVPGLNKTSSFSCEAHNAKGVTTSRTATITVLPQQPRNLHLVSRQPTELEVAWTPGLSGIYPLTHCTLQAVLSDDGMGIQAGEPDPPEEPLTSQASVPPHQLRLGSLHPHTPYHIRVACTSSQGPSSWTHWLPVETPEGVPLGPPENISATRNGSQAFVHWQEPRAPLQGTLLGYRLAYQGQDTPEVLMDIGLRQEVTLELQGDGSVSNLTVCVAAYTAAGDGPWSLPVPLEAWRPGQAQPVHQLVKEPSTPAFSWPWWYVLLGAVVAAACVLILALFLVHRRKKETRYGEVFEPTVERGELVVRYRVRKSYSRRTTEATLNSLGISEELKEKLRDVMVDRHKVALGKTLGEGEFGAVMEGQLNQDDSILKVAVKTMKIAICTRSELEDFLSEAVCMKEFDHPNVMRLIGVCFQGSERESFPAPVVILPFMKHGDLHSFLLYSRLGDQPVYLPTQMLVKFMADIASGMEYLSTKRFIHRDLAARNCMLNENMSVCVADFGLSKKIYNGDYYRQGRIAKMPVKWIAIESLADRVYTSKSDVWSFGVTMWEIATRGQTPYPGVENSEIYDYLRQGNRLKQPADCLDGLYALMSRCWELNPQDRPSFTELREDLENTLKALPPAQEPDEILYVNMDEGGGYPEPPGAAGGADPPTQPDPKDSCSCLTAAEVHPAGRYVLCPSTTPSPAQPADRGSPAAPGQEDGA
Summary of the method: as §1

MYLK = molecular target: T12, MYLK (Homo sapiens, UniProt Q15746)
T12 construct: purchased Millipore, Inc. (KinaseProfiler service)
Summary of the method: as §1

PRKG1beta = molecular target: T13, PRKG1beta (Homo sapiens, UniProt Q13976)
T13 construct: purchased Millipore, Inc. (KinaseProfiler service)
Summary of the method: as §1

Fyn = molecular target: T14, Fyn (Homo sapiens, UniProt P06241)
T14 construct: purchased Millipore, Inc. (KinaseProfiler service)
Summary of the method: as §1

FGFR4 = molecular target: T15, FGFR4 (Homo sapiens, UniProt P22455)
T15 construct: purchased Millipore, Inc. (KinaseProfiler service)
Summary of the method: as §1

CAMK1d = molecular target: T16, CAMK1d (Homo sapiens, UniProt Q8IU85)
T16 construct: purchased Millipore (KinaseProfiler service)
T16 sequence (Q8IU85 whole entry): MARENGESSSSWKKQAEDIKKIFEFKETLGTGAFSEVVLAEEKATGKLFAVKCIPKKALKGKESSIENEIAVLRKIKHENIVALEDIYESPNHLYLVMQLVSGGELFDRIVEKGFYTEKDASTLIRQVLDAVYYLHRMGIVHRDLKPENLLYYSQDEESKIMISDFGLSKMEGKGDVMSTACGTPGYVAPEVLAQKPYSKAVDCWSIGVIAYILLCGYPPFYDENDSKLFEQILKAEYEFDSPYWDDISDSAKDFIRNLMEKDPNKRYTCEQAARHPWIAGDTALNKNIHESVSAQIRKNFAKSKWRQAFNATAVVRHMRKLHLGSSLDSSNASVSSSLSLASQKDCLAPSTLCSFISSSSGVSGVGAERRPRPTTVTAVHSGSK
Summary of the method: as §1

JAK2 = molecular target: T17, JAK2 (Homo sapiens, UniProt O60674)
T17 construct: purchased Millipore, Inc. (KinaseProfiler service)
Summary of the method: as §1

MKNK2 = molecular target: T18, MKNK2 (Homo sapiens, UniProt Q9HBH9)
T18 construct: purchased Millipore, Inc. (KinaseProfiler service)
T18 sequence (Q9HBH9 whole entry): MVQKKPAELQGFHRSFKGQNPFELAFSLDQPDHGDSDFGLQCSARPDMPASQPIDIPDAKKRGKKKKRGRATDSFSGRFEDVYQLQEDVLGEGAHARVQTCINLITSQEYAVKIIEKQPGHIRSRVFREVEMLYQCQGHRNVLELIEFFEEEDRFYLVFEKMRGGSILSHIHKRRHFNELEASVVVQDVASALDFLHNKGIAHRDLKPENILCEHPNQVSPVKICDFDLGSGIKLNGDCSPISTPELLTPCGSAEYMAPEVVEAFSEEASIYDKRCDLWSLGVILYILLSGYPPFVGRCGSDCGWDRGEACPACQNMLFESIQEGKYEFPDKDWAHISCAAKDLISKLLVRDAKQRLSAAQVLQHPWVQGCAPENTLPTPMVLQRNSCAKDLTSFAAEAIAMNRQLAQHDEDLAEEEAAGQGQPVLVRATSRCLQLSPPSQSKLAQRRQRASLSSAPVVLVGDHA
Summary of the method: as §1

CSK = molecular target: T19, CSK (Homo sapiens, UniProt P41240)
T19 construct: purchased Millipore, Inc. (KinaseProfiler service)
Summary of the method: as §1

PRK2 = molecular target: T20, PRK2 (Homo sapiens, UniProt Q16513)
T20 construct: purchased Millipore, Inc. (KinaseProfiler service)
Summary of the method: as §1

AURKA = molecular target: T21, AURKA (Homo sapiens, UniProt O14965)
T21 construct: purchased Millipore (KinaseProfiler service)
T21 sequence (O14965 whole entry): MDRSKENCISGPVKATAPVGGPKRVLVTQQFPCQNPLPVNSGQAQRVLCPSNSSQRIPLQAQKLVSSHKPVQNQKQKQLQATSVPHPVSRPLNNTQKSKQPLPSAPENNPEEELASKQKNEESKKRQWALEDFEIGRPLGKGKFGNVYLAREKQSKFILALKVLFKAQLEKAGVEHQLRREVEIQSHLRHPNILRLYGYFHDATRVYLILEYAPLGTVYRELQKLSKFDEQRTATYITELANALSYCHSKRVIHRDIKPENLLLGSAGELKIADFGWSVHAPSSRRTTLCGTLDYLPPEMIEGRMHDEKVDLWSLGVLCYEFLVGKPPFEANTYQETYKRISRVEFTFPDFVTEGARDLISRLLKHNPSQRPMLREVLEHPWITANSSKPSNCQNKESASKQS
Summary of the method: as §1

SRPK2 = molecular target: T22, SRPK2 (Homo sapiens, UniProt P78362)
T22 construct: purchased Millipore, Inc. (KinaseProfiler service)
T22 sequence (P78362 whole entry): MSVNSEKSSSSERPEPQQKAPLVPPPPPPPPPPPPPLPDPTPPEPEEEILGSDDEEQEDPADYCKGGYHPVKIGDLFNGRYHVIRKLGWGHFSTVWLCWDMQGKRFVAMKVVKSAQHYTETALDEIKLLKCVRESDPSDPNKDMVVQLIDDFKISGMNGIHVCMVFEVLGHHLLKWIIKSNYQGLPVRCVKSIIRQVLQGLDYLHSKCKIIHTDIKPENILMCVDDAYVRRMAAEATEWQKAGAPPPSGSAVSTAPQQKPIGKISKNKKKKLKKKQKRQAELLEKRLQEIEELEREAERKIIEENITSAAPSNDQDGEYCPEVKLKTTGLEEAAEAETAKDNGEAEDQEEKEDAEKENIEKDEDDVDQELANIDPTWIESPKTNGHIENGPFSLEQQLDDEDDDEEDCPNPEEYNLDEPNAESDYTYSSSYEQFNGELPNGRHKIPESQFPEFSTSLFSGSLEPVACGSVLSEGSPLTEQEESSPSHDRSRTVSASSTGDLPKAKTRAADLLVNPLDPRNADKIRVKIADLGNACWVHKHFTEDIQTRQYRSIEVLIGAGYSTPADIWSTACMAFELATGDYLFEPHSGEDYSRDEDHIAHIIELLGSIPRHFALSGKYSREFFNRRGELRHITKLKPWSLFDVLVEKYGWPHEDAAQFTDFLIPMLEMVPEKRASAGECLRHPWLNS
Summary of the method: as §1

ErbB4 = molecular target: T23, ErbB4 (Homo sapiens, UniProt Q15303)
T23 construct: purchased Millipore, Inc. (KinaseProfiler service)
T23 sequence (Q15303 26-1308): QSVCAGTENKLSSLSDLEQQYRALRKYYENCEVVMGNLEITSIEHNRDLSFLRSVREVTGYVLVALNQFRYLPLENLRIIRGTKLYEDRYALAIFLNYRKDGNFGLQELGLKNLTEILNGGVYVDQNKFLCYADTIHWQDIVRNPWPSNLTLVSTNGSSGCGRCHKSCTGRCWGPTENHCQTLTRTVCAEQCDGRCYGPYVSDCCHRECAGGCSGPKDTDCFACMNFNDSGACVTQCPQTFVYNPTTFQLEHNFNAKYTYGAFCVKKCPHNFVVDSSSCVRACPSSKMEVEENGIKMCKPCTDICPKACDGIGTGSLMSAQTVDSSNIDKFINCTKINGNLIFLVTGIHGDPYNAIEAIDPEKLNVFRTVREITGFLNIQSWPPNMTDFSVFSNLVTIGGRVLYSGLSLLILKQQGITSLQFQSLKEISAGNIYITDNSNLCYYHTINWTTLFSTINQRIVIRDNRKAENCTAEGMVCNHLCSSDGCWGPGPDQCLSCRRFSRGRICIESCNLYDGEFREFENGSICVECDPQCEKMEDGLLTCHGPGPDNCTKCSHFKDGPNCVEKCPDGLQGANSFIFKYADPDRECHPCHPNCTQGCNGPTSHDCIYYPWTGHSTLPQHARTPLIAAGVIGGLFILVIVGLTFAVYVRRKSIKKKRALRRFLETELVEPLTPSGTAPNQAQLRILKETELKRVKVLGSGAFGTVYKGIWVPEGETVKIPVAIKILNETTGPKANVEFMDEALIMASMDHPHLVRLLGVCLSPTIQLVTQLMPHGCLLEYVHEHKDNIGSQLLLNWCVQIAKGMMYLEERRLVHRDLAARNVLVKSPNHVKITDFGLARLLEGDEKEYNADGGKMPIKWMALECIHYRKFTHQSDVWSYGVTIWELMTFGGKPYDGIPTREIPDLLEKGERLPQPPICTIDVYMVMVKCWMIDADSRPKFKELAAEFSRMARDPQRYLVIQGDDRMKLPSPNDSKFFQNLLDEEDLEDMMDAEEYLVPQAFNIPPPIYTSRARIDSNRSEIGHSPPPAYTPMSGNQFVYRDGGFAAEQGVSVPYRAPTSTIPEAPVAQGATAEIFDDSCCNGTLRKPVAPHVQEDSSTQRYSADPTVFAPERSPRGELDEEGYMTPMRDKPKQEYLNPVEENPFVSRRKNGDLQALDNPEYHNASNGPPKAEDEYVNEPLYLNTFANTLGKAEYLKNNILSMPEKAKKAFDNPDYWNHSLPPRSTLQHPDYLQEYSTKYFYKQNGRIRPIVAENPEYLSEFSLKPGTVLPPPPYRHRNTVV
Summary of the method: as §1

GRK5 = molecular target: T24, GRK5 (Homo sapiens, UniProt P34947)
T24 construct: purchased Millipore, Inc. (KinaseProfiler service)
Summary of the method: as §1

PKCtheta = molecular target: T25, PKCtheta (Homo sapiens, UniProt Q04759)
T25 construct: purchased Millipore, Inc. (KinaseProfiler service)
Summary of the method: as §1

FGFR2 = molecular target: T26, FGFR2 (Homo sapiens, UniProt P21802)
T26 construct: purchased Millipore, Inc. (KinaseProfiler service)
Summary of the method: as §1

Pim-2 = molecular target: T27, Pim-2 (Homo sapiens, UniProt Q9P1W9)
T27 construct: purchased Millipore, Inc. (KinaseProfiler service)
Summary of the method: as §1

Txk = molecular target: T28, Txk (Homo sapiens, UniProt P42681)
T28 construct: purchased Millipore, Inc. (KinaseProfiler service)
Summary of the method: as §1

PDGFRalpha = molecular target: T29, PDGFRalpha (Homo sapiens, UniProt P16234)
T29 construct: purchased Millipore, Inc. (KinaseProfiler service)
Summary of the method: as §1

MST3 = molecular target: T30, MST3 (Homo sapiens, UniProt Q9Y6E0)
T30 construct: purchased Millipore, Inc. (KinaseProfiler service)
Summary of the method: as §1

PKAC-alpha = molecular target: T31, PKAC-alpha (Homo sapiens, UniProt P17612)
T31 construct: purchased Millipore, Inc. (KinaseProfiler service)
Summary of the method: as §1

TBK1 = molecular target: T32, TBK1 (Homo sapiens, UniProt Q9UHD2)
T32 construct: purchased Millipore, Inc. (KinaseProfiler service)
Summary of the method: as §1

EphB3 = molecular target: T33, EphB3 (Homo sapiens, UniProt P54753)
T33 construct: purchased Millipore, Inc. (KinaseProfiler service)
T33 sequence (P54753 34-998): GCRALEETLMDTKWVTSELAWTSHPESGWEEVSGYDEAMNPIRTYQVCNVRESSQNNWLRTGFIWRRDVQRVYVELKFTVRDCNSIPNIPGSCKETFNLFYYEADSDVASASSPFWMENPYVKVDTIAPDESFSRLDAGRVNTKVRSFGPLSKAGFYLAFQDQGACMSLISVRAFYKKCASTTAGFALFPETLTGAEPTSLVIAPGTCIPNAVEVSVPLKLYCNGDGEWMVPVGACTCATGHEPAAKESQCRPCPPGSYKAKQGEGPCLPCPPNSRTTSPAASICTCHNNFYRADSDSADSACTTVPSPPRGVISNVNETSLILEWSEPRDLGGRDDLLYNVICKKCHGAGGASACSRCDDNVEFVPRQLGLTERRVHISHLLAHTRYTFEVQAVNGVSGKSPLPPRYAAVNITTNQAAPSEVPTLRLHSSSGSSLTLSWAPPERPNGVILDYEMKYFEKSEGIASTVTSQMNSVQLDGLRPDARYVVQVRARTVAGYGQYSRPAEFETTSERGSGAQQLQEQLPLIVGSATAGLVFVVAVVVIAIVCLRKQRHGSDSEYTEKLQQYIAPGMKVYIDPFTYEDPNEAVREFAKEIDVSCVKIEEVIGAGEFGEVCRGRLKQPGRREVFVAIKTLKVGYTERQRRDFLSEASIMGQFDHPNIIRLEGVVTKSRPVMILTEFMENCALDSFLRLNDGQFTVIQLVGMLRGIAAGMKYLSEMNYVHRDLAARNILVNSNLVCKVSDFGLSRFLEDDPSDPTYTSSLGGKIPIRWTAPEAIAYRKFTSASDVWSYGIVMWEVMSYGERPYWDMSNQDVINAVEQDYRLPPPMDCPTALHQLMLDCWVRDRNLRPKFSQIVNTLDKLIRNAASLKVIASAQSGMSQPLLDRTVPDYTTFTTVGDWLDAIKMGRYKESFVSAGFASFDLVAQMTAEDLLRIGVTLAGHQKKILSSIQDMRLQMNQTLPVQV
Summary of the method: as §1

IGF-1R = molecular target: T34, IGF-1R (Homo sapiens, UniProt P08069)
T34 construct: purchased Millipore, Inc. (KinaseProfiler service)
Summary of the method: as §1

PKCgamma = molecular target: T35, PKCgamma (Homo sapiens, UniProt P05129)
T35 construct: purchased Millipore, Inc. (KinaseProfiler service)
Summary of the method: as §1

IR Activated = molecular target: T36, IR Activated (Homo sapiens, UniProt P06213)
T36 construct: purchased Millipore, Inc. (KinaseProfiler service)
Summary of the method: as §1

HIPK3 = molecular target: T37, HIPK3 (Homo sapiens, UniProt Q9H422)
T37 construct: purchased Millipore, Inc. (KinaseProfiler service)
Summary of the method: as §1

MAPKAP-K5 = molecular target: T38, MAPKAP-K5 (Homo sapiens, UniProt Q8IW41)
T38 construct: purchased Millipore, Inc. (KinaseProfiler service)
Summary of the method: as §1

Pim-1 = molecular target: T39, Pim-1 (Homo sapiens, UniProt P11309)
T39 construct: purchased Millipore, Inc. (KinaseProfiler service)
Summary of the method: as §1

LKB1 = molecular target: T40, LKB1 (Homo sapiens, UniProt Q15831)
T40 construct: purchased Millipore, Inc. (KinaseProfiler service)
Summary of the method: as §1

KIT = molecular target: T41, KIT (Homo sapiens, UniProt P10721)
T41 construct: purchased Millipore, Inc. (KinaseProfiler service)
Summary of the method: as §1

## COCc1ccc(C2CCC2)c(CNC(=O)Nc2c(C)c(-c3cnc(C)nc3)nn2-c2ccccc2)c1 [Example 10, 1-(2-cyclobutyl-5-(methoxymethyl)benzyl)-3-(4-methyl-3-(2-methylpyrimidin-5-yl)-1-phenyl-1H-pyrazol-5-yl)urea]
MSK1
  Avg POC MSK1: 88.5 POC
PKD1
  Avg POC PKD1: 94.5 POC
MSSK1
  Avg POC MSSK1: 112 POC
CLK2
  Avg POC CLK2: 97.5 POC
ROCK-II
  Avg POC ROCK-II: 98 POC
DYRK2
  Avg POC DYRK2: 92.5 POC
PTK5
  Avg POC PTK5: 87.5 POC
SGK1
  Avg POC SGK1: 96 POC
Ron
  Avg POC Ron: 100.5 POC
Plk2
  Avg POC Plk2: 101 POC
Axl
  Avg POC Axl: 104.5 POC
MYLK
  Avg POC MYLK: 88 POC
PRKG1beta
  Avg POC PRKG1beta: 107.5 POC
Fyn
  Avg POC Fyn: 103 POC
FGFR4
  Avg POC FGFR4: 118 POC
CAMK1d
  Avg POC CAMK1d: 81 POC
JAK2
  Avg POC JAK2: 106.5 POC
MKNK2
  Avg POC MKNK2: 98 POC
CSK
  Avg POC CSK: 132 POC
PRK2
  Avg POC PRK2: 88.5 POC
AURKA
  Avg POC AURKA: 90 POC
SRPK2
  Avg POC SRPK2: 114 POC
ErbB4
  Avg POC ErbB4: 108.5 POC
GRK5
  Avg POC GRK5: 81.5 POC
PKCtheta
  Avg POC PKCtheta: 94 POC
FGFR2
  Avg POC FGFR2: 103.5 POC
Pim-2
  Avg POC Pim-2: 118 POC
Txk
  Avg POC Txk: 104.5 POC
PDGFRalpha
  Avg POC PDGFRalpha: 102 POC
MST3
  Avg POC MST3: 99 POC
PKAC-alpha
  Avg POC PKAC-alpha: 132 POC
TBK1
  Avg POC TBK1: 104.5 POC
EphB3
  Avg POC EphB3: 100 POC
IGF-1R
  Avg POC IGF-1R: 82 POC
PKCgamma
  Avg POC PKCgamma: 101 POC
IR Activated
  Avg POC IR Activated: 99 POC
HIPK3
  Avg POC HIPK3: 95.5 POC
MAPKAP-K5
  Avg POC MAPKAP-K5: 92 POC
Pim-1
  Avg POC Pim-1: 101.5 POC
LKB1
  Avg POC LKB1: 89.5 POC
KIT
  Avg POC KIT: 102 POC

## COCc1ccc(C(F)(F)F)c(CNC(=O)Nc2c(C)c(-c3cnn(C)c3)nn2-c2ccccc2)c1 [Example 33, 1-(1′,4-dimethyl-1-phenyl-1H,1′H-[3,4′-bipyrazol]-5-yl)-3-(5-(methoxymethyl)-2-(trifluoromethyl)benzyl)urea]
MSK1
  Avg POC MSK1: 147 POC
PKD1
  Avg POC PKD1: 94 POC
MSSK1
  Avg POC MSSK1: 138.5 POC
CLK2
  Avg POC CLK2: 131.5 POC
ROCK-II
  Avg POC ROCK-II: 107.5 POC
DYRK2
  Avg POC DYRK2: 91.5 POC
PTK5
  Avg POC PTK5: 92.5 POC
SGK1
  Avg POC SGK1: 279 POC
Ron
  Avg POC Ron: 95.5 POC
Plk2
  Avg POC Plk2: 102 POC
Axl
  Avg POC Axl: 117 POC
MYLK
  Avg POC MYLK: 100.5 POC
PRKG1beta
  Avg POC PRKG1beta: 121 POC
Fyn
  Avg POC Fyn: 113 POC
FGFR4
  Avg POC FGFR4: 201.5 POC
CAMK1d
  Avg POC CAMK1d: 111.5 POC
JAK2
  Avg POC JAK2: 130 POC
MKNK2
  Avg POC MKNK2: 101.5 POC
CSK
  Avg POC CSK: 127.5 POC
PRK2
  Avg POC PRK2: 106 POC
AURKA
  Avg POC AURKA: 112 POC
SRPK2
  Avg POC SRPK2: 112 POC
ErbB4
  Avg POC ErbB4: 130.5 POC
GRK5
  Avg POC GRK5: 82 POC
PKCtheta
  Avg POC PKCtheta: 112.5 POC
FGFR2
  Avg POC FGFR2: 109.5 POC
Pim-2
  Avg POC Pim-2: 146 POC
Txk
  Avg POC Txk: 156.5 POC
PDGFRalpha
  Avg POC PDGFRalpha: 126.5 POC
MST3
  Avg POC MST3: 126.5 POC
PKAC-alpha
  Avg POC PKAC-alpha: 139.5 POC
TBK1
  Avg POC TBK1: 105.5 POC
EphB3
  Avg POC EphB3: 69 POC
IGF-1R
  Avg POC IGF-1R: 44 POC
PKCgamma
  Avg POC PKCgamma: 98 POC
IR Activated
  Avg POC IR Activated: 103.5 POC
HIPK3
  Avg POC HIPK3: 102 POC
MAPKAP-K5
  Avg POC MAPKAP-K5: 97.5 POC
Pim-1
  Avg POC Pim-1: 138 POC
LKB1
  Avg POC LKB1: 90 POC
KIT
  Avg POC KIT: 94 POC
